What all share (format): cell-based
One test relates to S. Typhimurium SL1344. The test can be described thus: MIC assay with or without SPR741, S. Typhimurium. Conditions: Salmonella enterica. The procedure:
We next sought to determine whether we could achieve growth inhibition of wild-type E. coli using MAC-0452936 and an antibiotic adjuvant. […] To that end, we determined the MIC of MAC-0452936 against wild-type E. coli in the presence and absence of a sub-MIC concentration of SPR741 (Figure S8B). […] We leveraged this combination to characterize the spectrum of activity of MAC-0452936 against a panel of Gram-negative pathogens (Table 2). In the presence of 8 μg/mL SPR741, we observed MAC-0452936 activity against the clinical E. coli isolates C0244 and CFT073 at 2 μg/mL as well as against Salmonella Typhimurium SL1344 at 4 μg/mL.
(§1) For MIC assays, cultures of bacteria were grown in LB broth. Overnight cultures were diluted (1:100) into fresh LB media and grown to the mid-log phase of growth (OD600 ∼0.5). Subcultures were then normalized to an OD600 of 0.1, and diluted (1:5000) into assay media. Assay plates were then incubated for 18 h at 37°C, then OD600 was measured using a Biotek Neo plate reader.

The test system of a further test is E. coli ΔtolC-pore. Briefly: Time-kill assay. The source says:
As Lgt is found at the inner membrane of Gram-negative bacteria, we sought to rule out physical perturbation of the membrane as the cause of the antibacterial activity observed for MAC-0452936. […] To that end, we treated both non-growing E. coli ΔtolC-pore in a nutrient-deplete medium (PBS) and actively growing E. coli ΔtolC-pore in a nutrient-replete medium (LB) with varying concentrations of MAC-0452936 and enumerated colony-forming units (CFUs) at different time points (Figure S9A). […] Indeed, MAC-0452936 reduced the bacterial counts of E. coli ΔtolC-pore to the limit of detection after 6 h at compound concentrations greater than 2 μg/mL. We then tested MAC-0452936 for hemolytic activity against human-derived red blood cells and cytotoxicity against HEK-293 cells. […] However, we did observe a modest decrease in the viability of HEK-293 cells when treated with concentrations of MAC-0452936 greater than 8 μg/mL.
E. coli ΔtolC-pore was grown overnight in LB broth. For killing in nutrient-deplete media, overnight culture was pelleted by centrifugation at 5,000g for 30 min, and resuspended in sterile PBS buffer. Cells in PBS were added to a microwell plate containing different concentrations of MAC-0452936 (100 μL final volume), and incubated for the specified time at 37°C with shaking. At the specified time points, cultures were pelleted by centrifugation 5,000g for 30 min at 4°C, then 10-fold serially diluted in PBS before being plated on LB agar for CFU enumeration. For killing of actively growing cells in nutrient replete media, overnight culture of E. coli ΔtolC-pore was diluted 1/1000 into fresh LB broth and grown at 37°C with shaking to the early-log phase of growth (∼2.5 h, OD600 ∼0.2). Cells in LB broth were then added to a microwell plate containing different concentrations of MAC-0452936 (100 μL final volume), and incubated for the specified time at 37°C with shaking. At the specified time points, cultures were pelleted by centrifugation 5,000g for 30 min at 4°C, then 10-fold serially diluted in PBS before being plated on LB agar for CFU enumeration.

Test [1] relates to E. coli ΔlgtΔtolC-pore pCHAP9231. Briefly: MIC with arabinose-titrated lgt expression. Conditions: lgt expression driven solely by arabinose from pCHAP9231. The source says: We next turned to genetic approaches to confirm the mechanism of action of MAC-0452936. […] To that end, we screened the E. coli CRISPRi collection in the ΔtolC-pore genetic background with a sub-inhibitory concentration of MAC-0452936 and measured the fitness of all 356 CRISPRi mutants (Figure 4C and Data S4). […] Depletion of Lgt by CRISPRi provided supporting evidence that MAC-0452936 targeted Lgt in E. coli; however, we sought to confirm this observation using a parallel genetic approach. We hypothesized that MAC-0452936 potency would also be affected by high-copy expression of lgt. To that end, we introduced either an arabinose inducible copy of lgt supplied on the pCHAP9231 plasmid[48] or the pBAD19s plasmid as a control into E. coli ΔtolC-pore and tested the potency of MAC-0452936 (Figure 4E). Induction of lgt expression with arabinose suppressed the activity of MAC-0452936 by about 8-fold. […] To test this hypothesis, we constructed E. coli ΔlgtΔtolC-pore with pCHAP9231[48] so that lgt expression was driven solely by arabinose from the plasmid. […] To test this observation with MAC-0452936, we introduced an lpp deletion into our screening strain E. coli ΔtolC-pore and assessed the activity of our Lgt inhibitor in this mutant background. […]

Test [2] relates to E. coli and the Gram-positive organisms Staphylococcus aureus and Bacillus subtilis. Briefly: Growth inhibition in dose of E. coli and Gram-positive organisms. Conditions: tested in dose against E. coli, S. aureus and B. subtilis. As to the method: Of these 24 compounds, six were prioritized for further follow-up based on structural novelty relative to known antibacterial scaffolds and were tested in dose for growth inhibition of E. coli and the Gram-positive organisms Staphylococcus aureus and Bacillus subtilis (Figure S5). We hypothesized that compounds active against E. coli, but not the Gram-positive organisms, might target processes involved in the Gram-negative outer-membrane synthesis, many of which were identified as possible targets in our genetic screen. Importantly, these processes are either absent or not essential for growth in Gram-positive organisms, offering promise for narrow-spectrum applications.
as §1

Entries after “also recorded” stand apart in the source; their conditions may differ. Like-named read-outs stand apart in the source and are kept apart here.

Regarding `COc1ccc(C(=O)O/N=C(\c2cccs2)C(C)(C)C)cc1` [MAC-0452936, (Z)-2-Pivaloylthiophene O-(4-methoxybenzoyl) oxime], the MIC with S. Typhimurium SL1344 (read-out: MIC, S. Typhimurium SL1344 + 0 μg/mL SPR741) is more than 64 µg/mL; in the test on S. Typhimurium SL1344 (read-out: MIC, S. Typhimurium SL1344 + 8 μg/mL SPR741) it was 4 µg/mL. For the same compound, in the test on E. coli ΔtolC-pore (LB, after 6 h), the “compound concentrations that reduced bacterial counts to the limit of detection” value was “greater than 2 μg/mL”. In the test on E. coli ΔtolC-pore (nutrient-deplete medium (PBS), CFU), the “killing of non-growing bacteria” value is on record as “could not kill non-growing bacteria”. The “killing of actively growing bacteria” value in the test on E. coli ΔtolC-pore (nutrient-replete medium (LB), CFU) was “potent bactericidal activity”. The “change of MIC with increasing arabinose concentrations” value in test [1] is “dose-dependent increase in the MIC; also recorded: increase with increasing”. In addition, in test [2], the “spectrum of growth inhibition, E. coli versus Gram-positive organisms” value is “specifically inhibit E. coli”.

The values are drawn from article PMC11456916, “A screen for cell envelope stress uncovers an inhibitor of prolipoprotein diacylglyceryl transferase, Lgt, in Escherichiacoli” (iScience, 2024).
